Laboratory results as given in the NIST ThermoML archive (doi:10.1016/j.jct.2013.04.009).

What was measured:
[1] = Ring tensiometer
[2] = xn = mol fraction of the nth substance listed; conditions: Ring tensiometer

CCCO [propan-1-ol]
[1]
Conditions | surface tension liquid-gas [mN/m]
288.15 K | 23.24
298.15 K | 22.5
308.15 K | 21.39
318.15 K | 20.88
328.15 K | 20.18

C[S+](C)[O-] [dimethyl sulfoxide]
[1]
Conditions | surface tension liquid-gas [mN/m]
288.15 K | 43.68
298.15 K | 42.18
308.15 K | 41.11
318.15 K | 39.99
328.15 K | 38.72

CCCCO [butan-1-ol]
[1]
Conditions | surface tension liquid-gas [mN/m]
288.15 K | 24.28
298.15 K | 23.48
308.15 K | 22.4
318.15 K | 21.64
328.15 K | 20.56

C[S+](C)[O-] [dimethyl sulfoxide] + CCCO
surface tension liquid-gas [mN/m], [2]
Conditions | 288.15 K | 298.15 K | 308.15 K | 318.15 K | 328.15 K
x2 = 0.0454 | 40.3 | 39.39 | 37.85 | 36.89 | 36.64
x2 = 0.1248 | 36.24 | 35.91 | 34.14 | 33.79 | 33.37
x2 = 0.2498 | 33.09 | 32.37 | 31.06 | 30.95 | 30.07
x2 = 0.3821 | 30.1 | 29.48 | 28.96 | 28.33 | 27.01
x2 = 0.4997 | 28.34 | 27.81 | 27.06 | 26.41 | 25.5
x2 = 0.5959 | 27.14 | 26.34 | 25.67 | 25.02 | 24.15
x2 = 0.661 | 26.33 | 25.7 | 24.6 | 24.15 | 23.35
x2 = 0.7081 | 25.71 | 25.17 | 24.41 | 23.65 | 22.77
x2 = 0.7437 | 25.25 | 24.74 | 23.97 | 23.15 | 22.45
x2 = 0.8523 | 24.28 | 23.5 | 22.89 | 22.34 | 21.64
x2 = 0.9519 | 23.55 | 22.58 | 22.13 | 21.5 | 20.28

C[S+](C)[O-] [dimethyl sulfoxide] + CCCCO
surface tension liquid-gas [mN/m], [2]
Conditions | 288.15 K | 298.15 K | 308.15 K | 318.15 K | 328.15 K
x2 = 0.0373 | 39.63 | 38.43 | 38.16 | 36.84 | 36.19
x2 = 0.1042 | 36.3 | 35.44 | 34.43 | 33.54 | 32.99
x2 = 0.2136 | 32.33 | 32.03 | 30.37 | 30.79 | 29.37
x2 = 0.3353 | 30.13 | 29.72 | 28.82 | 28.06 | 27.19
x2 = 0.449 | 28.57 | 27.92 | 27.16 | 26.61 | 25.8
x2 = 0.5461 | 27.41 | 26.74 | 25.98 | 25.33 | 24.35
x2 = 0.614 | 26.65 | 26.06 | 25.27 | 24.55 | 23.85
x2 = 0.6643 | 26.18 | 25.55 | 24.84 | 23.98 | 23.3
x2 = 0.703 | 25.77 | 25.17 | 24.41 | 23.6 | 22.56
x2 = 0.8512 | 25.14 | 24.33 | 23.41 | 22.28 | 20.86
x2 = 0.9521 | 24.57 | 23.98 | 22.68 | 21.94 | 20.55

CCCCCCO [hexan-1-ol]
[1]
Conditions | surface tension liquid-gas [mN/m]
288.15 K | 25.38
298.15 K | 24.51
308.15 K | 23.86
318.15 K | 23.02
328.15 K | 22.33

CCCCCCO [hexan-1-ol] + C[S+](C)[O-]
surface tension liquid-gas [mN/m], [2]
Conditions | 288.15 K | 298.15 K | 308.15 K | 318.15 K | 328.15 K
x1 = 0.0276 | 38.76 | 37.64 | 37.53 | 36.73 | 35.16
x1 = 0.0786 | 34.22 | 33.57 | 34.04 | 33.39 | 32.7
x1 = 0.1661 | 31.83 | 30.74 | 30.98 | 30.06 | 28.96
x1 = 0.2701 | 29.83 | 29.35 | 28.94 | 28.16 | 27.55
x1 = 0.3741 | 28.72 | 27.95 | 27.68 | 26.94 | 26.24
x1 = 0.4687 | 27.91 | 27.29 | 26.7 | 26.16 | 25.36
x1 = 0.5385 | 27.47 | 26.83 | 26.27 | 25.57 | 25.04
x1 = 0.5921 | 26.99 | 26.24 | 25.85 | 25.07 | 24.29
x1 = 0.6345 | 26.53 | 26.06 | 25.62 | 24.72 | 24.02
x1 = 0.7511 | 26 | 25.85 | 25.2 | 24.44 | 23.84
x1 = 0.9512 | 25.48 | 25.1 | 24.75 | 24.14 | 23.12
